# In US20230055705A1, “SUBSTITUTED THIOPHENE CARBOXAMIDES AND DERIVATIVES THEREOF” (Bayer Aktiengesellschaft, priority 2019, published 2023):
# Experiments:
# [1] = test system: Pseudomonas syringae pv. tomato; test: In vivo preventive test on Pseudomonas syringae pv. tomato (bacterial speck on tomato); settings: evaluated 5 or 6 days after inoculation, read-out: efficacy; for pest or weed control at 31 ppm: 31 ppm of active ingredient; for pest or weed control at 500 ppm: 500 ppm of active ingredient
# Description: (§1) The tested active ingredients were prepared by homogenization in a mixture of acetone/Dimethyl sulfoxide/Tween®, and then diluted with water to obtain the desired active material concentration. The young plants of tomato were treated by spraying the active ingredient prepared as described above. Control plants were treated only with an aqueous solution of acetone/Dimethyl sulfoxide/Tween®.
# After 72 hours, the plants were contaminated by spraying the leaves with an aqueous bacteria suspension of Pseudomonas syringae pv. tomato. The contaminated tomato plants were incubated for 4 days in saturated atmosphere at 22° C. day/20° C. night—70% HR and then for 1 or 2 days at 22° C. day/20° C. night at 70-80% relative humidity.
# The test was evaluated 5 or 6 days after the inoculation. 0% means an efficacy which corresponds to that of the control plants while an efficacy of 100% means that no disease was observed.
# Compounds CMP1 and CMP4 were tested in an in vivo preventive test on Pseudomonas syringae pv. tomato (bacterial speck on tomato) in the same conditions as described in Example J.
# [2] = test system: Xanthomonas campestris pv. campestris; test: In vivo preventive test on Xanthomonas campestris pv. campestris (black rot on cabbage); settings: evaluated 8 or 10 days after inoculation, read-out: efficacy; for pest or weed control at 125 ppm: 125 ppm of active ingredient; for pest or weed control at 31 ppm: 31 ppm of active ingredient
# Description: The tested active ingredients were prepared by homogenization in a mixture of acetone/Dimethyl sulfoxide/Tween®, and then diluted with water to obtain the desired active material concentration.
# The young plants of cabbage were treated by spraying the active ingredient prepared as described above. Control plants were treated only with an aqueous solution of acetone/Dimethyl sulfoxide/Tween®.
# After 72 hours, the plants were contaminated by spraying the leaves with an aqueous bacteria suspension of Xanthomonas campestris pv. campestris. The contaminated cabbage plants were incubated for 8 or 10 days at 27° C. at 95% relative humidity.
# The test was evaluated 8 or 10 days after the inoculation. 0% means an efficacy which corresponds to that of the control plants while an efficacy of 100% means that no disease was observed. […]
# Compounds CMP1, CMP2, CMP3 and CMP4 were tested in an in vivo preventive test on Xanthomonas campestris pv. campestris (black rot on cabbage) in the same conditions as described in Example H.
# Peronospora parasitica = test: In vivo preventive test on Peronospora parasitica (Crucifer downy mildew); settings: cabbage, evaluated 5 days after inoculation; for pest or weed control at 500 ppm / pest or weed control at 31 ppm / pest or weed control at 125 ppm: Hyaloperonospora parasitica, in Brassica oleracea, 120 h, read-out: efficacy; for pest or weed control at 31 ppm: 31 ppm of active ingredient; for pest or weed control at 125 ppm: 125 ppm of active ingredient
# Description: as §1, with “cabbage” for “tomato”
# After 72 hours, the plants were contaminated by spraying the leaves with an aqueous suspension of Peronospora parasitica spores. The contaminated cabbage plants were incubated for 5 days at 20° C. and at 100% relative humidity.
# The test was evaluated 5 days after the inoculation. 0% means an efficacy which corresponds to that of the control plants while an efficacy of 100% means that no disease was observed.
# Compounds CMP2 and CMP3 were tested in an in vivo preventive test on Peronospora parasitica (Crucifer downy mildew) in the same conditions as described in Example G.
# [3] = test system: salicylate responsive promoter sequence of the PR1 (pathogenesis-related protein I) gene (AT2G14610); test: Induction of defense gene expression in Arabidopsis thaliana (PR1 promoter-GFP reporter plants); format: in vivo; settings: 3rd day after spraying, mock treated leaves set as 1.00; for fold induction at 300 ppm / fold induction at 75 ppm: Arabidopsis thaliana, 72 h, read-out: relative fluorescence value; for fold induction at 75 ppm: 75 ppm of compound
# Description: Arabidopsis thaliana reporter plants containing the coding sequence of a green fluorescent protein (GFP) linked to the salicylate responsive promoter sequence of the PR1 (pathogenesis-related protein I) gene (AT2G14610) were grown for five days and then sprayed with compounds. On the 3rd day after spraying, plant fluorescence was assessed with a MacroFluo instrument from Leica Microsystems (Wetzlar, Germany). Fluorescences were quantified with the Meta-Morph Microscopy Automation & Image Analysis Software (Molecular Devices, Sunnyvale, Calif., United States). Background fluorescence in mock treated leaves was set as 1.00.
# Uromyces appendiculatus = test: In vivo preventive test on Uromyces appendiculatus (bean rust); settings: 240 h, evaluated 10 days after inoculation, read-out: efficacy; for pest or weed control at 500 ppm: 500 ppm of active ingredient; for pest or weed control at 125 ppm: 125 ppm of active ingredient
# Description: as §1, with “bean” for “tomato”
# (§2) After 72 hours, the plants were contaminated by spraying the leaves with an aqueous suspension of Uromyces appendiculatus spores. The contaminated bean plants were incubated for 24 hours at 20° C. and at 100% relative humidity and then for 9 days at 20° C. and at 70-80% relative humidity. The test was evaluated 10 days after the inoculation. 0% means an efficacy which corresponds to that of the control plants while an efficacy of 100% means that no disease was observed.
# Compounds CMP5 and CMP6 were tested in an in vivo preventive test on Uromyces appendiculatus (bean rust) in the same conditions as described in Example I.
# [4] = test system: Colletotrichum lindemuthianum; test: In vivo preventive test on Colletotrichum lindemuthianum (Antrachnose on bean); settings: 144 h, inoculation 72 h after spraying, evaluated 6 days after inoculation, read-out: efficacy; for pest or weed control at 500 ppm: 500 ppm of active ingredient
# Description: as §1, with “bean” for “tomato”
# as §2, with “of Colletotrichum lindemuthianum” for “of Uromyces appendiculatus”, “for 5” for “for 9”, “at 90%” for “at 70-80%”, “evaluated 6” for “evaluated 10”
# Compound CMP1 was tested in an in vivo preventive test on Colletotrichum lindemuthianum (Antrachnose on bean) in the same conditions as described in Example F.
# [5] = LogP by HPLC on reversed phase columns (EEC directive 79/831 Annex V.A8); format: physicochemical; settings: for chromatographic logP: reversed phase HPLC columns
# Description: In the above tables, measurement of LogP values was performed according to EEC directive 79/831 Annex V.A8 by HPLC (High Performance Liquid Chromatography) on reversed phase columns with the following methods: • ^[a]
# Calibration was done with straight-chain alkan2-ones (with 3 to 16 carbon atoms) with known LogP values (measurement of LogP values using retention times with linear interpolation between successive alkanones). Lambda-max-values were determined using UV-spectra from 200 nm to 400 nm and the peak values of the chromatographic signals.
# [6] = method [a]: LC-UV, in an acidic range, with 0.1% formic acid in water and acetonitrile as eluent (linear gradient from 10% to 95% acetonitrile)
smiles,measurement,setting,value
"COC(=O)[C@@H](NC(=O)c1sc(Cl)c(Cl)c1Cl)C(C)C [CMP4, reference compound]",pest or weed control at 31 ppm,[1],0%
same,pest or weed control at 125 ppm,[2],0%
CCSC(=O)[C@@H](NC(=O)c1sc(Cl)c(Cl)c1Cl)C(C)C [I.094],pest or weed control at 500 ppm,Peronospora parasitica; 500 ppm of active ingredient,90 to 100%
same,pest or weed control at 500 ppm,[1],80 to 89%
same,fold induction at 300 ppm,[3]; 300 ppm,> 2
same,pest or weed control at 500 ppm,Uromyces appendiculatus,90 to 100%
CCNC(=O)[C@H](C)NC(=O)c1sc(Cl)c(Cl)c1Cl [I.120],pest or weed control at 31 ppm,Peronospora parasitica,90 to 100%
same,pest or weed control at 125 ppm,Peronospora parasitica,90 to 100%
same,pest or weed control at 500 ppm,Peronospora parasitica; 500 ppm of active ingredient,90 to 100%
same,pest or weed control at 31 ppm,[4]; 31 ppm of active ingredient,70 to 79%
same,pest or weed control at 500 ppm,[4],90 to 100%
same,fold induction at 75 ppm,[3],> 2
same,fold induction at 300 ppm,[3]; 300 ppm,> 2
same,pest or weed control at 125 ppm,Uromyces appendiculatus,90 to 100%
same,pest or weed control at 500 ppm,Uromyces appendiculatus,90 to 100%
same,chromatographic logP,[5]; [6],2.75
same,pest or weed control at 31 ppm,[2],80 to 89%
"NC(=S)CNC(=O)c1sc(Cl)c(Cl)c1Cl [I.104, N-(2-amino-2-sulfanylideneethyl)-3,4,5-trichlorothiophene-2-carboxamide]",pest or weed control at 31 ppm,Peronospora parasitica,90 to 100%
same,pest or weed control at 125 ppm,Peronospora parasitica,90 to 100%
same,pest or weed control at 500 ppm,Peronospora parasitica; 500 ppm of active ingredient,90 to 100%
same,pest or weed control at 31 ppm,[1],70 to 79%
same,pest or weed control at 500 ppm,[1],80 to 89%
same,pest or weed control at 500 ppm,[4],80 to 89%
same,fold induction at 75 ppm,[3],> 2
same,fold induction at 300 ppm,[3]; 300 ppm,> 2
same,pest or weed control at 125 ppm,Uromyces appendiculatus,70 to 79%
same,pest or weed control at 500 ppm,Uromyces appendiculatus,90 to 100%
same,chromatographic logP,"[5]; given in the preparation examples, method not marked",2.53
same,chromatographic logP,[5]; [6],2.53
CNC(=O)[C@H](C)NC(=O)c1sc(Cl)c(Cl)c1Cl [I.091],pest or weed control at 31 ppm,Peronospora parasitica,90 to 100%
same,pest or weed control at 125 ppm,Peronospora parasitica,90 to 100%
same,pest or weed control at 500 ppm,Peronospora parasitica; 500 ppm of active ingredient,90 to 100%
same,pest or weed control at 500 ppm,[4],70 to 79%
same,fold induction at 300 ppm,[3]; 300 ppm,> 2
same,pest or weed control at 125 ppm,Uromyces appendiculatus,80 to 89%
same,pest or weed control at 500 ppm,Uromyces appendiculatus,70 to 79%
same,chromatographic logP,[5]; [6],2.35
"O=C(O)c1ccccc1O [Salicylic acid, reference compound]",relative fluorescence value,[3]; 300 ppm,2.70
CCOC(=O)C(C)N(C(=O)c1sc(Cl)c(Cl)c1Cl)C1CC1 (stereo not drawn) [I.110],pest or weed control at 500 ppm,Peronospora parasitica; 500 ppm of active ingredient,70 to 79%
same,pest or weed control at 125 ppm,Uromyces appendiculatus,70 to 79%
same,pest or weed control at 500 ppm,Uromyces appendiculatus,90 to 100%
same,chromatographic logP,[5]; [6],4.23
same,pest or weed control at 31 ppm,[2],70 to 79%
same,pest or weed control at 125 ppm,[2],70 to 79%
"CCOC(=O)[C@@H](NC(=O)c1sc(Cl)c(Cl)c1Cl)C(C)C [CMP6, reference compound]",pest or weed control at 500 ppm,Uromyces appendiculatus,< 40%
CNC(=O)[C@@H](NC(=O)c1sc(Cl)c(Cl)c1Cl)C(C)C [I.096],chromatographic logP,[5]; [6],2.97
same,pest or weed control at 125 ppm,[2],80 to 89%
CCOC(=O)[C@H](C)NC(=S)c1sc(Cl)c(Cl)c1Cl [I.118],efficacy,Peronospora parasitica; 500 ppm of active ingredient,70%
same,LogP,[5],5.21^[a]
CC(C)OC(=O)C1(NC(=O)c2sc(Cl)c(Cl)c2Cl)CCC1 [I.150],LogP,[5],4.74^[a]
CCCCOC(=O)C1(NC(=O)c2sc(Cl)c(Cl)c2Cl)CCC1 [I.099],LogP,[5],5.20^[a]
O=C(NC1CCSC1=O)c1sc(Cl)c(Cl)c1Cl (stereo not drawn) [I.023],LogP,[5],3.17^[a]
COC(=O)[C@H](CCC(=O)O)NC(=O)c1sc(Cl)c(Cl)c1Cl [I.075],LogP,[5],2.57^[a]
O=C(NC1(C(=O)OC2CCC2)CCC1)c1sc(Cl)c(Cl)c1Cl [I.102],LogP,[5],4.93^[a]
O=C1CC(NC(=O)c2sc(Cl)c(Cl)c2Cl)CN1 (stereo not drawn) [I.028],LogP,[5],1.86^[a]
NC(=O)CC(NC(=O)c1sc(Cl)c(Cl)c1Cl)C(=O)O (stereo not drawn) [I.001],LogP,[5],1.81^[a]
COC(=O)[C@@H](CC(N)=O)NC(=O)c1sc(Cl)c(Cl)c1Cl [I.014],LogP,[5],2.11^[a]
CCCOC(=O)C1(NC(=O)c2sc(Cl)c(Cl)c2Cl)CCC1 [I.101],LogP,[5],4.74^[a]
CN(CC#N)C(=O)CNC(=O)c1sc(Cl)c(Cl)c1Cl [I.063],LogP,[5],2.62^[a]
N#CC1(NC(=O)c2sc(Cl)c(Cl)c2Cl)CC1 [I.032],LogP,[5],2.88^[a]
COC(=O)C(NC(=S)c1sc(Cl)c(Cl)c1Cl)C(C)C (stereo not drawn) [I.093],LogP,[5],5.61^[a]
N#CNC(=O)C1(NC(=O)c2sc(Cl)c(Cl)c2Cl)CC1 [I.107],LogP,[5],2.57^[a]
N#CC1(NC(=O)c2sc(Cl)c(Cl)c2Cl)CCSCC1 [I.133],LogP,[5],3.72^[a]
CC(C)(C)OC(=O)C1(NC(=O)c2sc(Cl)c(Cl)c2Cl)CC(F)(F)C1 [I.086],LogP,[5],4.81^[a]
CN(C)C(=S)CNC(=O)c1sc(Cl)c(Cl)c1Cl [I.129],LogP,[5],3.68^[a]
"CC(C)[C@H](NC(=O)c1sc(Cl)c(Cl)c1Cl)C(=O)O [CMP5, reference compound]",pest or weed control at 8 ppm,Uromyces appendiculatus; 8 ppm,< 20%
CCOC(=O)C1(NC(=O)c2sc(Cl)c(Cl)c2Cl)CN(C(=O)OC(C)(C)C)C1 [I.057],LogP,[5],4.47^[a]
COC(=O)C1(NC(=O)c2sc(Cl)c(Cl)c2Cl)CSC1 [I.080],LogP,[5],3.50^[a]
CC(C)(C)OC(=O)C1(NC(=O)c2sc(Cl)c(Cl)c2Cl)CCC1 [I.097],LogP,[5],5.28^[a]
CCSC(=O)C(NC(=O)c1sc(Cl)c(Cl)c1Cl)C(C)C (stereo not drawn) [I.090],LogP,[5],5.45^[a]
O=C(NC1(C(=O)NO)CC1)c1sc(Cl)c(Cl)c1Cl [I.050],LogP,[5],1.91^[a]
COC(=O)C1(NC(=O)c2sc(Cl)c(Cl)c2Cl)CC(C)(C)C1 [I.087],LogP,[5],4.48^[a]
